According to article PMC12303383, “The heme-regulated inhibitor kinase Hri1 is activated in response to aminolevulinic acid deficiency in Schizosaccharomyces pombe” (PLOS Genetics, 2025):

Key:
Hri2 = target: T1, Hri2 (Schizosaccharomyces pombe, UniProt Q9UTE5); assay: differential absorbance spectral titration (Soret peak, […] nm) with purified protein; format: binding
T1 construct: MBP-tagged wild-type Hri2 expressed in E. coli, dephosphorylated with lambda phosphatase
T1 sequence (Q9UTE5 1-639): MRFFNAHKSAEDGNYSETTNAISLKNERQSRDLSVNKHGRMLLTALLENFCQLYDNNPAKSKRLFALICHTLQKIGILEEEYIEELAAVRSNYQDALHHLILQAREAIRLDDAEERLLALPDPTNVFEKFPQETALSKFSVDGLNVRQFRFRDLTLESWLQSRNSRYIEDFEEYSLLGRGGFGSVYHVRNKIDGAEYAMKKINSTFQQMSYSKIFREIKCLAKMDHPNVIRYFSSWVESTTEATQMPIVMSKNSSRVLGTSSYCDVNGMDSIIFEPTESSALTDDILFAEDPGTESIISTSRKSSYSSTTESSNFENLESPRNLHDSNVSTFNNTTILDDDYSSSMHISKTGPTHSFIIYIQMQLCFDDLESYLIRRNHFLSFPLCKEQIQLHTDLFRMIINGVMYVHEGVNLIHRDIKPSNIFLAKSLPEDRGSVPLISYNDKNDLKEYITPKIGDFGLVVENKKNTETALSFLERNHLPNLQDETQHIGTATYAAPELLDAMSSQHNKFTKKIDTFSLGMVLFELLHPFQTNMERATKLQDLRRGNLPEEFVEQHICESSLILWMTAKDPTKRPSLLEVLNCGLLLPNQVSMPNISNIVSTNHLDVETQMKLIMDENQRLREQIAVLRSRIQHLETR

[1] = target: T2, Hri1 (heme-regulated inhibitor kinase 1) (Schizosaccharomyces pombe, UniProt O13889); assay: as above; format: binding
T2 construct: MBP-tagged wild-type Hri1 expressed in E. coli, dephosphorylated with lambda phosphatase
T2 sequence (O13889 1-704): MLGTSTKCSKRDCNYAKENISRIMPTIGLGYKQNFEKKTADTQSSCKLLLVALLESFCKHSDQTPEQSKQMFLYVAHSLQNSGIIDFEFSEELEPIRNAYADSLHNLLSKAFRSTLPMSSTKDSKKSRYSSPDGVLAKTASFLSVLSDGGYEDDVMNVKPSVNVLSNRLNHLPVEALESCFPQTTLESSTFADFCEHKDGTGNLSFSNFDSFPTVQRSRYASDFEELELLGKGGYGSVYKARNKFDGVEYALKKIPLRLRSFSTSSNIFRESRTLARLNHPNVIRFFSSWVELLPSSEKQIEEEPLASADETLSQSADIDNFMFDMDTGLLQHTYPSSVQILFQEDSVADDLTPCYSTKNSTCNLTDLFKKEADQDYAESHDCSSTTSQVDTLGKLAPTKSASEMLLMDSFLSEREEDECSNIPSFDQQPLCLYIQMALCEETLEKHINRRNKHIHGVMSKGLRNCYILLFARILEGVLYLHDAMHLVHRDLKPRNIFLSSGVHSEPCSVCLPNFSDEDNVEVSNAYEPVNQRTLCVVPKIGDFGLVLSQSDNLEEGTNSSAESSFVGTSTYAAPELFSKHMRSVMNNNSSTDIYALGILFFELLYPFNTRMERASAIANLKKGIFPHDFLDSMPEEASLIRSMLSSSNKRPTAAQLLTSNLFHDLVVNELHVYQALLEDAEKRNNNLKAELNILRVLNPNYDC

**Q.** With `C=CC1=C(C)C2=Cc3c(C=C)c(C)c4[n]3[Fe]([Cl])[n]3c(c(C)c(CCC(=O)O)c3=CC3=NC(=C4)C(C)=C3CCC(=O)O)=CC1=N2` [hemin] as the compound, how does the Kd (Hri2) read?
**A.** 1050 nM

**Q.** And the Kd [1]?
**A.** 110 nM
